Results published in patent publication US12622910B2, “Inhibitors of Bruton's tyrosine kinase and methods of their use” (Janssen Pharmaceutica NV, priority 2021, dated 2026).

Experiment: Phase 1 first-in-human study, safety (TEAEs)
Format: in vivo
Description: Study Participants—Volunteers aged 18-58 years, with a body mass index (BMI) of 18-30 kg/m^2, body weight ≥50 kg, and who were considered healthy based on medical history, physical examination, clinical laboratory evaluation, and 12-lead electrocardiogram (ECG) were enrolled in this study. Females were required to be surgically sterile or postmenopausal. Key exclusion criteria were history of, or current, clinically significant medical illness and history of malignancy within 5 years.
Study Design—This phase 1, randomized, double-blind, placebo-controlled, single-center study (NCT03607513; EudraCT 2018-000428-32) was conducted between July 2018 and August 2019 at the Janssen Clinical Pharmacology Unit in Merksem, Belgium.The study comprised two distinct parts; Part 1 examined SAD of compound of Formula (III) and Part 2 assessed MAD of compound of Formula (III).
Safety, tolerability, PK, and BTKO were assessed for six doses of compound of Formula (III) oral solution (4, 12, 36, 100, 200, 400 mg) in participants under fasted conditions. The SAD part comprised 10 cohorts of 8 participants each (FIG. 1). In each cohort receiving compound of Formula (III) oral solution (Cohorts 1-9), 6 participants were randomized to receive compound of Formula (III) and 2 to receive placebo. All participants in Cohort 10 received compound of Formula (III) as an oral capsule. All 10 cohorts included 2 sentinel participants who were dosed ˜24 hours prior to the rest of the cohort. In cohorts receiving compound of Formula (III) oral solution, 1 sentinel participant received compound of Formula (III) and the other received placebo.
Six male escalating dose cohorts received a single oral dose of 4, 12, 36, 100, 200, 400 mg compound of Formula (III) or placebo solution under fasted conditions. Gender effects were assessed in 2 female cohorts whose participants received either a 36 or 100 mg dose of compound of Formula (III) or placebo as an oral solution under fasted conditions. Food effects were evaluated in a male cohort receiving compound of Formula (III) 100 mg or placebo as an oral solution after a high-fat breakfast.
Safety, tolerability, and PK of a solid dose formulation of compound of Formula (III) were assessed in an additional male cohort (Cohort 10) that received 3×35 mg (105 mg) of compound of Formula (III) in the fasted state. Since all the participants received the same dose of compound of Formula (III), this cohort was not blinded.
Safety, tolerability, PK, and BTKO following multiple compound of Formula (III) doses were evaluated in 3 dose escalation cohorts with a total of 18 participants (males: 9, females: 9) receiving active study drug. In each cohort, 3 males and 3 females were randomized to receive 36 mg once-daily (QD), 100 mg QD, or 200 mg QD compound of Formula (III) oral solution and 3 participants (males: 2; female: 1) to receive placebo. Two male participants in each cohort served as sentinel participants: one received compound of Formula (III) and other received placebo ˜48 hours prior to other participants in the cohort. All safety and tolerability data (through the follow-up visit), PK data (through at least 24 hours after last dose administration), and all available PD data were reviewed from each cohort before a decision was made to dose escalate.
Safety—Safety evaluations were based upon the type, incidence, and severity of treatment-emergent adverse events (TEAEs) reported throughout the study, and concomitant medication reporting, clinical laboratory tests, physical examinations, vital sign measurements, and ECGs assessed at pre-defined time points. The TEAEs and serious TEAEs were coded using the Medical Dictionary for Regulatory Activities (MedDRA Version 21.0) and summarized by system-organ class (SOC) and preferred terms.

## C=CC(=O)N[C@H]1CCC[C@H]1NC(=O)c1sc2nccc3c2c1NC(=O)N3c1cnc(CC(C)C)cc1C (atropisomer, axis not shown) [compound of Formula (III), N-((1R,2S)-2-Acrylamidocyclopentyl)-5-(S)-(6-isobutyl-4-methylpyridin-3-yl)-4-oxo-4,5-dihydro-3H-1-thia-3,5,8-triazaacenaphthylene-2-carboxamide]
Part 1, 4 mg fasted
  Administration site irritation, n (%): 1
  Headache, n (%): 1
  Patients with ≥1 TEAEs, n (%): 2
Part 1, 12 mg fasted
  Administration site irritation, n (%): 0
  Headache, n (%): 2
  Patients with ≥1 TEAEs, n (%): 3
Part 1, 36 mg fasted
  Administration site irritation, n (%): 0
  Headache, n (%): 2
  Patients with ≥1 TEAEs, n (%): 4
Part 1, 100 mg fasted
  Administration site irritation, n (%): 0
  Headache, n (%): 0
  Patients with ≥1 TEAEs, n (%): 4
Part 1, 100 mg fed
  Administration site irritation, n (%): 0
  Headache, n (%): 1
  Patients with ≥1 TEAEs, n (%): 1
Part 1, 105 mg solid
  Administration site irritation, n (%): 0
  Headache, n (%): 1
  Patients with ≥1 TEAEs, n (%): 3
Part 1, 200 mg fasted
  Administration site irritation, n (%): 1
  Headache, n (%): 1
  Patients with ≥1 TEAEs, n (%): 4
Part 1, 400 mg fasted
  Administration site irritation, n (%): 0
  Headache, n (%): 0
  Patients with ≥1 TEAEs, n (%): 3
Part 1, all treated
  headache, incidence: 13.3%
  nasal congestion, incidence: 5%
Part 1, total N = 60
  Administration site irritation, n (%): 2(3.3)
  Headache, n (%): 8 (13.3)
Part 2, 36 mg
  Abdominal discomfort, n (%): 1 (16.7)
  Abdominal pain, n (%): 0
  Abnormal dreams, n (%): 0
  Administration site irritation, n (%): 1 (16.7)
  Back pain, n (%): 1 (16.7)
  Cough, n (%): 0
  Dehydration, n (%): 0
  Diarrhea, n (%): 0
  Dizziness, n (%): 0
  Dysgeusia, n (%): 0
  Fatigue, n (%): 0
  Flatulence, n (%): 1 (16.7)
  Headache, n (%): 0
  Hot flush, n (%): 0
  Increased bronchial secretion, n (%): 0
  Injection site hematoma, n (%): 0
  Injection site reaction, n (%): 1 (16.7)
  Lipase increased, n (%): 0
  Myalgia, n (%): 0
  Nasopharyngitis, n (%): 0
  Nausea, n (%): 0
  Oral dysaesthesia, n (%): 0
  Oropharyngeal pain, n (%): 0
  Paresthesia, n (%): 2 (33.3)
  Patients with ≥1 TEAEs, n (%): 4 (66.7)
  Regurgitation, n (%): 1 (16.7)
  Skin irritation, n (%): 0
  Skin reaction, n (%): 1 (16.7)
  Somnolence, n (%): 0
  Vertigo, n (%): 0
  Vessel puncture site hematoma, n (%): 0
  Vision blurred, n (%): 0
Part 2, 100 mg
  Abdominal discomfort, n (%): 1 (16.7)
  Abdominal pain, n (%): 0
  Abnormal dreams, n (%): 0
  Administration site irritation, n (%): 2 (33.3)
  Back pain, n (%): 0
  Cough, n (%): 0
  Dehydration, n (%): 0
  Diarrhea, n (%): 1 (16.7)
  Dizziness, n (%): 0
  Dysgeusia, n (%): 0
  Fatigue, n (%): 0
  Flatulence, n (%): 0
  Headache, n (%): 0
  Hot flush, n (%): 1 (16.7)
  Increased bronchial secretion, n (%): 0
  Injection site hematoma, n (%): 2 (33.3)
  Injection site reaction, n (%): 1 (16.7)
  Lipase increased, n (%): 0
  Myalgia, n (%): 1 (16.7)
  Nasopharyngitis, n (%): 0
  Nausea, n (%): 0
  Oral dysaesthesia, n (%): 0
  Oropharyngeal pain, n (%): 0
  Paresthesia, n (%): 0
  Patients with ≥1 TEAEs, n (%): 5 (83.3)
  Regurgitation, n (%): 0
  Skin irritation, n (%): 0
  Skin reaction, n (%): 0
  Somnolence, n (%): 1 (16.7)
  Vertigo, n (%): 0
  Vessel puncture site hematoma, n (%): 1 (16.7)
  Vision blurred, n (%): 0
Part 2, 200 mg
  Abdominal discomfort, n (%): 0
  Abdominal pain, n (%): 1 (16.7)
  Abnormal dreams, n (%): 0
  Administration site irritation, n (%): 0
  Back pain, n (%): 0
  Cough, n (%): 0
  Dehydration, n (%): 0
  Diarrhea, n (%): 0
  Dizziness, n (%): 1 (16.7)
  Dysgeusia, n (%): 0
  Fatigue, n (%): 1 (16.7)
  Flatulence, n (%): 0
  Headache, n (%): 1 (16.7)
  Hot flush, n (%): 1 (16.7)
  Increased bronchial secretion, n (%): 0
  Injection site hematoma, n (%): 0
  Injection site reaction, n (%): 0
  Lipase increased, n (%): 0
  Myalgia, n (%): 0
  Nasopharyngitis, n (%): 0
  Nausea, n (%): 0
  Oral dysaesthesia, n (%): 0
  Oropharyngeal pain, n (%): 0
  Paresthesia, n (%): 0
  Patients with ≥1 TEAEs, n (%): 5 (83.3)
  Regurgitation, n (%): 1 (16.7)
  Skin irritation, n (%): 0
  Skin reaction, n (%): 1 (16.7)
  Somnolence, n (%): 0
  Vertigo, n (%): 0
  Vessel puncture site hematoma, n (%): 0
  Vision blurred, n (%): 1 (16.7)
Part 2, 200 mg group, after 8 days
  participants discontinued due to a TEAE (mild transaminases increased): 1
Part 2, all treated [2/18]
  abdominal discomfort, back pain, hot flush, paresthesia, regurgitation, skin reaction: incidence of each: 11.1%
Part 2, all treated [3/18]
  administration site irritation, incidence: 16.7%
Part 2, total N = 18
  Abdominal discomfort, n (%): 2 (11.1)
  Abdominal pain, n (%): 1 (5.6)
  Abnormal dreams, n (%): 0
  Administration site irritation, n (%): 3 (16.7)
  Back pain, n (%): 1 (16.7)
  Cough, n (%): 0
  Dehydration, n (%): 0
  Diarrhea, n (%): 1 (5.6)
  Dizziness, n (%): 1 (5.6)
  Dysgeusia, n (%): 0
  Fatigue, n (%): 1 (5.6)
  Flatulence, n (%): 1 (5.6)
  Headache, n (%): 1 (5.6)
  Hot flush, n (%): 2 (11.1)
  Increased bronchial secretion, n (%): 0
  Injection site hematoma, n (%): 2 (11.1)
  Injection site reaction, n (%): 2 (11.1)
  Lipase increased, n (%): 0
  Myalgia, n (%): 0
  Nasopharyngitis, n (%): 0
  Nausea, n (%): 0
  Oropharyngeal pain, n (%): 0
  Paresthesia, n (%): 2 (11.1)
  Regurgitation, n (%): 2 (11.1)
  Skin irritation, n (%): 0
  Skin reaction, n (%): 2 (11.1)
  Somnolence, n (%): 1 (5.6)
  Vertigo, n (%): 0
  Vessel puncture site hematoma, n (%): 1 (5.6)
  Vision blurred, n (%): 1 (5.6)
Parts 1 and 2
  serious TEAEs: No serious TEAEs
  severity of TEAEs: mild to moderate
